Test results reported in patent publication US20030109529A1, “Use of s-triazines for treating Apicomplexan parasitic infections” (priority 1999, published 2003).

How the values were obtained:
[1] = tested on: wild type Plasmodium falciparum; experiment: In vitro red blood cell culture infected with wild type Plasmodium falciparum, percent RBCs infected; type: cell-based; settings: for effectiveness compared with chloroquine (text to Table 2): 2.0-0.02 μM
Procedure: The in vitro method used to test the anti-malarial effectiveness of various s-triazines was adapted from Trager, 1994, Methods in Cell Biology Vol 45:7-26.
(§1) Briefly, a red blood cell suspension at a malarial (wild type Plasmodium falciparum) infection rate of approximately 1% was added to each well of a 96 well micro titer plate. The test compound was added to the cultures at final concentrations of 2.0, 0.2 or 0.02 μM. and incubated in an environment of 5% CO2, 5% O2 and 90% N2 at 37° C. Every 24 hrs the dish was removed, 100 μl of spent medium removed and 100 μl of fresh, compound containing-medium was added back to each well. This procedure was repeated daily.
(§2) At 48 hrs and again at 96 hrs, blood smears were made from each well and 500 Red Blood Cells (RBCs) were counted and inspected for malarial infection. The percent infection rate was then determined for each experimental condition tested.
(§3) Malaria parasite (P. falciparum) was grown in culture as described previously. At 48 hours and 96 hours of treatment, red blood cells were taken from culture and the percent red blood cells infected with the parasite was determined by microscopic examination.
The data in Table 2 represent percent red blood cell (RBC) infection rate at 48 hrs of treatment with the antimalarial test compound. Control cultures were 35% RBC infected.

[2] = rats given a single injection; cited from earlier work
[3] = tested on: wild type rodent malaria (Plasmodium berghi); experiment: In vitro evaluation against wild type rodent malaria; type: cell-based; settings: Experiment 5, 48 hrs or 96 hrs after treatment
Procedure: as §1, §2
The procedure set forth in Example 1 is utilized for testing compounds against wild type rodent malaria (Plasmodium berghi).

calf DHFR = biological target: T1, calf DHFR (Bos taurus, UniProt P00376); experiment: DHFR enzyme assay, calf liver homogenate; type: biochemical
T1 construct: tested using homogenates of calf liver, rat liver and cultures of P. falciparum; from tissue; host or cells: calf liver homogenate
T1 sequence (P00376 1-187): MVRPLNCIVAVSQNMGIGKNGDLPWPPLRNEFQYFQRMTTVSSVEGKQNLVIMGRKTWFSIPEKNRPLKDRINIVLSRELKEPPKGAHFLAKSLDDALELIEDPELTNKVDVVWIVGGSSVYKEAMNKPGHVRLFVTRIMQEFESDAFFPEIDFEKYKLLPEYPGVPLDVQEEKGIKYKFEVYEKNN
Procedure: (§4) The ability of atrazine to inhibit dihydrofolate reductase (DHFR) is also tested using homogenates of calf liver, rat liver and cultures of P. falciparum. Atrazine's ability to inhibit mammalian DHFR (i.e., calf DHFR and rat DHFR) as well as malarial DHFR is determined using standard enzyme assays and the Michaelis-Menton analysis. The Michaelis-Menton hypothesis states that a complex is formed between an enzyme and its substrate and that the complex then dissociates to yield free enzyme and the reaction products, with the rate of dissociation determining the overall rate of substrate-product conversion. For a more complete review of the Michaelis constant, see Benet et al., 1996, Pharmacokinetics, Chapter 1:3-27, In Goodman & Gilman's The Pharmacological Basis of Therapeutics, Ninth Edition, McGraw-Hill; and Ross, 1996, Pharmacodynamics, Chapter 2:29-41, Id.

rat DHFR = biological target: T2, rat DHFR (Rattus norvegicus, UniProt Q920D2); experiment: DHFR enzyme assay, rat liver homogenate; type: biochemical
T2 construct: tested using homogenates of calf liver, rat liver and cultures of P. falciparum; from tissue; host or cells: rat liver homogenate
T2 sequence (Q920D2 1-187): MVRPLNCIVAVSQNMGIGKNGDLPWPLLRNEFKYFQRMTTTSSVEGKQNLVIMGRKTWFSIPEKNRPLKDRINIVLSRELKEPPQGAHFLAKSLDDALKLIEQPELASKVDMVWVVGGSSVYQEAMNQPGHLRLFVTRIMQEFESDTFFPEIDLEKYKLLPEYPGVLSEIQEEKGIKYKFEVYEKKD
Procedure: as §4

P. falciparum = experiment: Isobologram analysis of chloroquine and atrazine in vitro against P. falciparum; type: cell-based, Plasmodium falciparum; settings: each drug alone at its ID50, or combinations of the stated fractions of each ID50
Procedure: Drugs can interact in additive, antagonistic or synergistic manner. See Berenbaum, J. Infect. Dis., 137:122-130, 1978. The isobologram assay permits determination of the type of interaction that occurs between drugs of interest. The ID50, or […], for both drugs was calculated.
Next, the drugs were tested in vitro at the ID50 for each drug alone and various combinations of drugs as described below:
These combinations of drugs were tested in vitro against P. falciparum and the data analyzed.

Toxoplasma gondii = experiment: In vitro anti-Toxoplasma test in human foreskin fibroblasts; type: cell-based; settings: 24 hrs after treatment
Procedure: Human foreskin fibroblasts are grown to confluency in 12 well plates. Next, Toxoplasma gondii is added to the plates. The resultant cultures are treated with the test compound 24 hrs later. […]

[4] = tested on: mefloquine resistant P. falciparum (Mfl res); experiment: In vitro RBC culture, mefloquine resistant P. falciparum; type: cell-based, Plasmodium falciparum; settings: for percentage of RBCs infected with mefloquine-resistant P. falciparum: Example 3, 48 hrs or 96 hrs after treatment; for Red Blood Cell Infection Rate: mefloquine-resistant, 96 hrs of treatment, 0.02 μM, control 24
Procedure: as §1, §2
The procedure set forth in Example 1 is utilized for testing the effectiveness of mefloquine and atrazine against mefloquine-resistant P. falciparum.
as §3

[5] = tested on: yeast transfected but not sensitive to antifolate antimalarials (folate insensitive); experiment: Yeast assay for antifolate activity, folate insensitive yeast; type: cell-based, Saccharomyces cerevisiae; settings: 48 hours of treatment
Procedure: (§5) We have established a in vitro yeast assay model for determining sensitivity to antifolate anti-malarials.
(§6) Saccharomyces cerevisiae was grown in culture and after 48 hours of treatment as described below the growth of the yeast was determined. Control (i.e., yeast grown with no treatment) is considered to be 100% growth. Drug treatment was then related to the controls as a percent of control growth. S. cerevisiae types tested included wild type yeast, yeast made sensitive to antifolate antimalarials by transfecting yeast with malarial dihydrofolate reductase (folate sensitive or folate sen), yeast transfected but not sensitive to antifolate antimalarials (folate insensitive or folate insen).

wild type yeast = experiment: Yeast assay for antifolate activity, wild type yeast; type: cell-based, Saccharomyces cerevisiae; settings: 48 hours of treatment
[6] = tested on: multi-drug resistant P. falciparum (MDR); experiment: In vitro RBC culture, multi-drug resistant P. falciparum; type: cell-based, Plasmodium falciparum; settings: for Red Blood Cell Infection Rate: multidrug-resistant, 96 hrs of treatment, 0.02 μM, control 25
Procedure: as §1, §2, §3

[7] = tested on: chloroquine resistant P. falciparum (Clq res); experiment: In vitro RBC culture, chloroquine resistant P. falciparum; type: cell-based, Plasmodium falciparum; settings: for percentage of RBCs infected with chloroquine-resistant P. falciparum: Example 2, 48 hrs or 96 hrs after treatment; for Red Blood Cell Infection Rate: chloroquine-resistant, 96 hrs of treatment, 0.02 μM, control 28
[8] = tested on: wild type Plasmodium falciparum; experiment: In vitro red blood cell culture infected with wild type Plasmodium falciparum, percent RBCs infected; type: cell-based; settings: 0.006 μM to 0.4 μM
P. berghei = experiment: In vivo efficacy against P. berghei in rats, single oral dose; design: species or system rat; settings: single oral dose (Chloroquine 20 mg/kg, Atrazine 100 mg/kg) 4 h after inoculation; for Parasitemia Day 4: ethanol control 24%; for Parasitemia Day 11: ethanol control 42%
Procedure: Rats weighing 60-70 gms were inoculated with P. berghei infected rat red blood cells. […] Blood was obtained 4 days and 11 days later and parasitemia assessed using light microscopy of blood smears. The percent parasitemia (i.e., the presence of parasites in the blood) was then determined for each group and the data are summarized in the table below: […]

malarial DHFR = experiment: DHFR enzyme assay, cultures of P. falciparum; type: biochemical
Procedure: as §4

Plasmodium berghi = experiment: In vivo evaluation against Plasmodium berghi in Lewis rats, intravenous treatment; design: species or system rat; settings: 20 mg/kg I.V., 24 and 48 hrs
Procedure: In vivo testing was performed using juvenile female Lewis rats. Rats were inoculated intraperitoneally with 30,000,000 Plasmodium berghi infected RBCs. Rats were bled daily from the tail vein and, when parasitemia reached 1-3%, therapy was begun.
Blood smears were obtained at 24 and 48 hrs. The percent RBCs infected was then calculated after counting and inspecting 500 RBCs for each rat.

[9] = tested on: yeast transfected with malarial dihydrofolate reductase (folate sensitive); experiment: Yeast assay for antifolate activity, folate sensitive yeast; type: cell-based, Saccharomyces cerevisiae; settings: 48 hours of treatment
Procedure: as §5, §6

[10] = tested on: antifolate-resistant P. falciparum; experiment: In vitro RBC culture, antifolate-resistant P. falciparum; type: cell-based, Plasmodium falciparum; settings: Example 4, 48 hrs or 96 hrs after treatment
Procedure: as §1, §2
The procedure set forth in Example 1 is utilized for testing the effectiveness of triazine and atrazine against antifolate-resistant P. falciparum.

[11] = 48 hrs of treatment, 0.02 μM, control 35%
[12] = 48 hrs of treatment, 0.2 μM, control 35%
[13] = 48 hrs of treatment, 2.0 μM, control 35%
[14] = wild type, 96 hrs of treatment, 0.02 μM, control 18

Q: Which results are given for CCNc1nc(NC(C)C)nc(SC)n1 [ametryn, 2-ethylamino-4-isopropylamino-6-thiomethoxy-s-triazine]?
A: Red Blood Cell Infection Rate [1, 11]: 20%; Red Blood Cell Infection Rate [1, 12]: 11%; Red Blood Cell Infection Rate [1, 13]: 10%; effectiveness compared with chloroquine (text to Table 2) ([1]; 48 hrs of treatment): less effective

Q: What does the source list for CCNc1nc(Cl)nc(NC(C)C)n1 [atrazine, 2-chloro-4-ethylamino-6-isopropylamino-s-triazine]?
A: LD50 [2]: ~3000 mg/kg; percentage of RBCs infected with P. berghi [3]: relatively low percentage of the RBCs being infected; inhibition of DHFR (calf DHFR): does not inhibit DHFR; inhibition of DHFR (rat DHFR): does not inhibit DHFR; Percent Growth Inhibition (P. falciparum): 58%; percentage of fibroblast cells infected with T. gondii (Toxoplasma gondii): relatively low percentage of the cells being infected; percentage of RBCs infected with mefloquine-resistant P. falciparum [4]: relatively low percentage of the RBCs being infected; effectiveness against resistant parasite (FIGS. 8, 9) ([4]; mefloquine resistant, 48 and 96 hours): effective against several classic forms of resistance; Red Blood Cell Infection Rate [4]: 3%; yeast growth (FIG. 7) [5]: Neither chloroquine (Clq) nor atrazine affected growth; yeast growth (FIG. 7) (wild type yeast): Neither chloroquine (Clq) nor atrazine affected growth; effectiveness against resistant parasite (FIGS. 8, 9) ([6]; multi-drug resistant, 48 and 96 hours): effective against several classic forms of resistance; Red Blood Cell Infection Rate [6]: 3%; Red Blood Cell Infection Rate [1, 11]: 3%; Red Blood Cell Infection Rate [1, 12]: 0%; Red Blood Cell Infection Rate [1, 13]: 0%; effectiveness compared with chloroquine (text to Table 2) ([1]; 48 hrs of treatment): substantially similar in effectiveness as chloroquine; percentage of RBCs infected with P. falciparum (FIGS. 1-4) ([1]; low concentrations, 48 hrs or 96 hrs after treatment): relatively low percentage of the RBCs being infected; Red Blood Cell Infection Rate [1, 14]: 3%; percentage of RBCs infected with chloroquine-resistant P. falciparum [7]: relatively low percentage of the RBCs being infected; effectiveness against resistant parasite (FIGS. 8, 9) ([7]; chloroquine resistant, 48 and 96 hours): effective against several classic forms of resistance; Red Blood Cell Infection Rate [7]: 4%; effectiveness compared with chloroquine (FIG. 5) [8]: as effective and potent as chloroquine; Parasitemia Day 4 (P. berghei): 6.0%; Parasitemia Day 11 (P. berghei): 10.5%; inhibition of DHFR (malarial DHFR): does not inhibit DHFR; in vivo percentage of RBCs infected with P. berghi compared to non-treated controls (FIG. 6) (Plasmodium berghi): disease dramatically reduced; yeast growth (FIG. 7) [9]: Neither chloroquine (Clq) nor atrazine affected growth; percentage of RBCs infected with antifolate-resistant P. falciparum [10]: relatively low percentage of the RBCs being infected

Q: What does the source list for CCN(CC)CCCC(C)Nc1ccnc2cc(Cl)ccc12 (stereo not shown) [chloroquine, reference compound]?
A: Percent Growth Inhibition (P. falciparum): 60%; Red Blood Cell Infection Rate [4]: 13%; yeast growth (FIG. 7) [5]: Neither chloroquine (Clq) nor atrazine affected growth; Red Blood Cell Infection Rate [6]: 22%; Red Blood Cell Infection Rate [1, 11]: 4%; Red Blood Cell Infection Rate [1, 12]: 0%; Red Blood Cell Infection Rate [1, 13]: 0%; Red Blood Cell Infection Rate [1, 14]: 3%; percentage of RBCs infected with chloroquine-resistant P. falciparum [7]: significantly higher level of RBCs being infected; Red Blood Cell Infection Rate [7]: 28%; Parasitemia Day 4 (P. berghei): 5.8%; Parasitemia Day 11 (P. berghei): 11%; in vivo percentage of RBCs infected with P. berghi compared to non-treated controls (FIG. 6) (Plasmodium berghi): disease dramatically reduced; yeast growth (FIG. 7) [9]: Neither chloroquine (Clq) nor atrazine affected growth

Q: Which results are given for CCNc1nc(Cl)nc(NC(C)(C)C#N)n1 [cyanazine, 2-[[4-chloro-6-(ethylamino)-s-triazin-2-yl]amino]-2-methyl propionitrile]?
A: Red Blood Cell Infection Rate [1, 11]: 18%; Red Blood Cell Infection Rate [1, 12]: 17%; Red Blood Cell Infection Rate [1, 13]: 16%; effectiveness compared with chloroquine (text to Table 2) ([1]; 48 hrs of treatment): less effective

Q: For OC(c1cc(C(F)(F)F)nc2c(C(F)(F)F)cccc12)C1CCCCN1 (stereo not shown) [mefloquine, reference compound], which “percentage of RBCs infected with mefloquine-resistant P. falciparum” value [4] is on record?
A: significantly higher level of RBCs being infected

Q: What does the source list for CC(C)Nc1nc(Cl)nc(NC(C)C)n1 [propazine, 2-chloro-4,6-di(isopropylamino)-s-triazine]?
A: Red Blood Cell Infection Rate [1, 11]: 5%; Red Blood Cell Infection Rate [1, 12]: 1%; Red Blood Cell Infection Rate [1, 13]: 1%; effectiveness compared with chloroquine (text to Table 2) ([1]; 48 hrs of treatment): substantially similar in effectiveness as chloroquine

Q: Which results are given for CCNc1nc(Cl)nc(NCC)n1 [simazine, 2-chloro-4,6-di(ethylamino)-s-triazine]?
A: Red Blood Cell Infection Rate [1, 11]: 3%; Red Blood Cell Infection Rate [1, 12]: 0%; Red Blood Cell Infection Rate [1, 13]: 0%; effectiveness compared with chloroquine (text to Table 2) ([1]; 48 hrs of treatment): substantially similar in effectiveness as chloroquine

Q: Which “percentage of RBCs infected with antifolate-resistant P. falciparum” value [10] does the source give for c1ncncn1 [triazine] here?
A: significantly higher level of RBCs being infected
